Results published in patent publication US20130059778A1, “Identification of a Genetic Risk Factor for Diabetes” (priority 2010, published 2013).

What was measured:
[1] = system: wild type rat islets; experiment: Insulin secretion assay, rat islets treated with adenovirus (siRNA knockdown / rescue); format: cell-based; conditions: adenoviral delivery to knockdown islets; p=0.03, n=6
Protocol: INS-1-derived cell line 823/3 was cultured as described previously (28). Small interfering RNA (siRNA) sequences corresponding to rat ankyrin-B siRNA1: GGCCAGAAGATCTCAAGGA (SEQ ID NO:2), siRNA2: GCTGTGTAGCATTTTAACA (SEQ ID NO:3), or a control siRNA which is siRNA 1 mutated at three base sites: GGCCCGAAGAGCTCAAGGA (SEQ ID NO:4), were cloned into vector EHOO6 and used for construction of Ad-ankB siRNA recombinant adenoviruses by the methods described (29). Complementary DNAs encoding human ankyrin-B or ankyrin-B W/W (7, 8) were used to prepare recombinant adenoviruses (AdCMV-h ankB and h ankB RAN) using the AdEasy system (Stratagene catalog number 240010). An adenovirus containing the green fluorescent protein (GFP) gene (AdCMV-_GFP) was used as a control. Purified viruses were incubated with INS-1 823/3 cells or islets at multiplicities of infection (MOI) of 20-50 for 18 h. Assays were undertaken 72 h later.
Islets were isolated from ankB littermates and male Wistar rats by pancreatic perifusion as previously described (28). […] Insulin secretion was then measured by using static incubation for a 1 h period in HBSS containing 3 mM glucose. […] Static incubation samples and extract samples were analyzed for insulin concentrations via radioimmunoassay with the insulin Coat-a-Count kit (Diagnostic Products, Los Angeles). […]

[2] = system: islets isolated from ankB (+/+) and (+/−) mice; experiment: Insulin secretion assay, islets from ankB(+/+) and (+/−) mice; format: cell-based, mouse; conditions: for potentiation of glucose-stimulated insulin release: Glp-1 100 nM
Protocol: Islets were isolated from ankB littermates and male Wistar rats by pancreatic perifusion as previously described (28). Islets were maintained in culture medium containing 11 mM glucose until the day of the assay. Insulin secretion was assayed in HEPES balanced salt solution (HBSS) (114 mM NaCl, 4.7 mM KCl, 1.2 mM KH2PO4, 1.16 mM MgSO4, 20 mM HEPES, 2.5 mM CaCl2, 25.5 mM NaHCO3, and 0.2% BSA, pH 7.2). Islets were pre-incubated HBSS containing 3 mM glucose for 2 hours. Insulin secretion was then measured by using static incubation for a 1 h period in HBSS containing 3 mM glucose. Islets were then transferred to HBSS containing 16.7 or 8 mM glucose for 1 hour, and then HBSS containing 16.7 or 8 mM glucose plus 0.1 mM carbachol or 100 nM Glp-1 for 1 hour. Following the incubations, islet samples were normalized for insulin content by extraction with 1 M acetic acid in 0.1% BSA. Static incubation samples and extract samples were analyzed for insulin concentrations via radioimmunoassay with the insulin Coat-a-Count kit (Diagnostic Products, Los Angeles). Values presented represent the mean values+/−SEM.

[3] = system: islets from ankB(+/+) and (+/−) mice; experiment: Intraislet calcium measurements using Fura-2; format: cell-based, mouse
Protocol: Islets from 8-10 month ankB(+/+) and (+/−) mice were isolated as described above and incubated overnight in medium containing 11 mM glucose. […] Islets were incubated 45 min at 37° C. Islets were then affixed to small open perifusion chamber (volume 150 μL) with a coverslip bottom using Puramatrix Peptide Hydrigel (BD Biosciences). Chamber was then mounted on a Zeiss Axiovert epifluorescence inverted microscope fitted with a Plan-Neofluar 16x/0.50 objective. The fluorescence (excitation at 355 or 380 nm) was recorded by a slow-scan charged-coupled device (CCD) camera (Andor Technology) and quantitated using AndorIQ software. All perifusions were performed at 37° C. using perfusion buffer containing either 3 mM glucose, 11 mM glucose, 30 mM KCl in 3 mM glucose, or 0.1 mM carbachol in 3 mM glucose. To assay carbachol effects in the absence of calcium, buffer containing 2 mM EGTA and 0 mM Ca^2+ was used. Data represent the mean+/−SEM of 3-7 individual islet recordings/animal using 6 animals/genotype. Significance was calculated using two-tailed T test.

full-length human ankyrin-B: full length 220 kD human ankyrin-B, siRNA-resistant, expressed from adenovirus
rescue of impaired carbachol-mediated insulin release [1]: −40%

glucagon-like peptide 1 [Glp-1]
potentiation of glucose-stimulated insulin release ([2]; ankB(+/−) islets, p=0.01, n=6): 2.1 fold | potentiation of glucose-stimulated insulin release ([2]; wild type animals): ~1.6 fold

C[N+](C)(C)CCOC(N)=O [carbachol]
reduction in Ca2+ release ([3]; ankB(+/−) islets, carbachol 0.1 mM in buffer containing 5 mM Ca2+): 64% | reduction in intracellular Ca2+ release ([3]; ankB(+/−) vs ankB(+/+) islets, Ca2+-free buffer containing carbachol 0.1 mM): ~79% | reduction in carbachol-stimulated insulin release ([2]; ankB(+/−) islets vs ankB(+/+), carbachol 0.1 mM, p=0.007, n=6): 40% | potentiation of insulin release by carbachol ([2]; wild type islets, stimulatory glucose plus carbachol 0.1 mM): 2.1 fold
